# Source: article PMC10318822, “Phase 1 dose-escalation study to evaluate the safety, tolerability, pharmacokinetics, and anti-tumor activity of FCN-159 in adults with neurofibromatosis type 1-related unresectable plexiform neurofibromas” (BMC Medicine, 2023)
# Values joined by “and” are separate entries in the source; they are usually repeats but may differ in a detail not shown here. Identical values can stand only once.
# Tested on: adult patients with NF1-related PN
# Assay: Phase I dose-escalation: DLT, MTD, RP2D and drug-related TEAEs (CTCAE v5.0)
# Procedure: This is a multicenter, open-label, single-arm, non-randomized, phase I dose-escalation trial to evaluate the safety, tolerability, pharmacokinetic (PK), and anti-tumor activity of orally administered FCN-159 in adult patients with NF1 (NCT04954001). Phase I commenced with dose escalation in adult patients following a standard 3 + 3 design (Supplementary Table S1) to determine the maximum tolerated dose (MTD) of FCN-159 administered daily under fasting conditions (defined as no food or drink 1 h before and 2 h after each dose) in 28-day cycles. Study drug was dispensed at the study site and patient adherence was monitored by the records of drug dispensation and return. Patients were on treatment until PD, death, patient's voluntary withdrawal from study treatment, or study termination. The study was followed for 2 years after the last patient in. The starting dose was 4 mg, escalating in cohorts of at least three evaluable patients at 6 mg, 8 mg, and 12 mg until the MTD was determined. The starting dose in this study was determined based on available data from a phase 1a, first-in-human study of FCN-159 in patients with advanced NRAS ^mut+ melanoma at the time of study design. […] Dose expansion at a likely RP2D level enrolled approximately six patients. The highest dose level with a dose-limiting toxicity (DLT) incidence rate ≤ 33% (0/3 or 1/6 patients) was to be considered the MTD. If patients experienced grade ≥ 3 and/or unacceptable toxic events that were considered as at least possibly related to the study treatment, the study treatment was discontinued and supportive treatment was given in accordance with local treatment routines. If the toxicity returned to grade ≤ 2 within 28 days after the occurrence, and there was no progression on patients’ conditions or the investigator believed that patients could benefit from the study treatment, the original dose could be maintained or reduced after discussion with medical monitor. After completion of the dose escalation part of the study, PK, efficacy, safety, and tolerability data were analyzed to select the RP2D.
# Primary endpoints of the study were the DLT incidence rate, MTD, and RP2D. Secondary endpoints included other safety assessments, imaging tumor response (complete response [CR], PR, stable disease [SD], or progressive disease [PD]), and PK parameters of FCN-159. Adverse events were graded per CTCAE v5.0.
# All patients underwent a complete medical history, physical examination, Eastern Cooperative Oncology Group (ECOG) assessment, and laboratory analysis of test results. Drug-related TEAEs, serious adverse events (SAEs), TEAEs of grade ≥ 3 toxicity, and TEAEs leading to drug discontinuation were reviewed on an ongoing basis. Efficacy was assessed by radiologic scans and clinical assessment. Tumor assessments per Response Evaluation in Neurofibromatosis Schwannomatosis criteria were performed by investigators using MRI volumetric analysis every 4 cycles within the first 2 years (± 7 days) and every 6 cycles after 2 years (± 14 days) until PD, death, patient's voluntary withdrawal from study treatment, or study termination. MRI sequences of […], T1- and T2-weighted sequences were chosen and the software of Extended Brilliance Workspace, SIGNA Premier and uExceed were used for MRI volumetric analysis. The same software was used for all tumor assessments at baseline and subsequent assessed timepoints of the same patient. Pain was assessed by an 11-point numerical rating scale (NRS-11).
# The sample size for the dose-escalation study was estimated to be 24 based on the 3 + 3 method. Safety was analyzed in patients who received at least one dose of FCN-159 and had at least one safety assessment. DLT was assessed in the DLT analysis set, defined as patients who were enrolled in the dose-escalation study and met the DLT evaluation criteria.
compound,measurement,setting,value
Cn1c(=O)c(F)c(Nc2ccc(I)cc2F)c2c(=O)n(C3CC3)nc(-c3cccc(NS(=O)(=O)C4CC4)c3)c21 [FCN-159],Drug-related TEAE: Mouth ulceration,8 mg (N = 8),1 (12.5) n (%)
same,Drug-related TEAE: Muscular weakness,8 mg (N = 8),1 (12.5) n (%)
same,Drug-related TEAE: Oedema peripheral,8 mg (N = 8),0 n (%)
same,Drug-related TEAE: Pain in extremity,8 mg (N = 8),0 n (%)
same,Drug-related TEAE: Paronychia,8 mg (N = 8),3 (37.5) n (%)
same,Drug-related TEAE: Prealbumin decreased,8 mg (N = 8),1 (12.5) n (%)
same,Drug-related TEAE: Protein urine present,8 mg (N = 8),2 (25.0) n (%)
same,Drug-related TEAE: Pruritus,8 mg (N = 8),1 (12.5) n (%)
same,Drug-related TEAE: QRS axis abnormal,8 mg (N = 8),0 n (%)
same,Drug-related TEAE: Rash,8 mg (N = 8),1 (12.5) n (%)
same,Drug-related TEAE: Sinus arrhythmia,8 mg (N = 8),0 n (%)
same,Drug-related TEAE: Sinus bradycardia,8 mg (N = 8),0 n (%)
same,Drug-related TEAE: Sinusitis,8 mg (N = 8),0 n (%)
same,Drug-related TEAE: Skin exfoliation,8 mg (N = 8),1 (12.5) n (%)
same,Drug-related TEAE: Specific gravity urine increased,8 mg (N = 8),2 (25.0) n (%)
same,Drug-related TEAE: Stomatitis,8 mg (N = 8),3 (37.5) n (%)
same,Drug-related TEAE: Supraventricular extrasystoles,8 mg (N = 8),0 n (%)
same,Drug-related TEAE: Total bile acids increased,8 mg (N = 8),0 n (%)
same,Drug-related TEAE: Tricuspid valve incompetence,8 mg (N = 8),2 (25.0) n (%)
same,Drug-related TEAE: Urinary occult blood positive,8 mg (N = 8),2 (25.0) n (%)
same,Drug-related TEAE: Urinary sediment present,8 mg (N = 8),1 (12.5) n (%)
same,Drug-related TEAE: Urinary tract infection,8 mg (N = 8),0 n (%)
same,Drug-related TEAE: Urine ketone body present,8 mg (N = 8),2 (25.0) n (%)
same,Drug-related TEAE: Urobilinogen urine increased,8 mg (N = 8),1 (12.5) n (%)
same,Drug-related TEAE: Urticaria,8 mg (N = 8),0 n (%)
same,Drug-related TEAE: Vision blurred,8 mg (N = 8),1 (12.5) n (%)
same,Drug-related TEAE: Visual acuity reduced,8 mg (N = 8),0 n (%)
same,Drug-related TEAE: pH urine decreased,8 mg (N = 8),2 (25.0) n (%)
same,Drug-related TEAE: pH urine increased,8 mg (N = 8),1 (12.5) n (%)
same,Subjects with any drug-related TEAE,8 mg (N = 8),8 (100) n (%)
same,Patients with DLT (grade 3 folliculitis),"8 mg, 1 of 8 patients",16.7% and 12.5%
same,Subjects with grade 3 AEs,12 mg,four
same,Drug-related TEAE: Abdominal pain,12 mg (N = 4),0 n (%)
same,Drug-related TEAE: Acne,12 mg (N = 4),0 n (%)
same,Drug-related TEAE: Acne pustular,12 mg (N = 4),0 n (%)
same,Drug-related TEAE: Alanine aminotransferase increased,12 mg (N = 4),0 n (%)
same,Drug-related TEAE: Albumin globulin ratio decreased,12 mg (N = 4),0 n (%)
same,Drug-related TEAE: Alopecia,12 mg (N = 4),3 (75.0) n (%)
same,Drug-related TEAE: Amylase increased,12 mg (N = 4),1 (25.0) n (%)
same,Drug-related TEAE: Anemia,12 mg (N = 4),0 n (%)
same,Drug-related TEAE: Aortic dilatation,12 mg (N = 4),0 n (%)
same,Drug-related TEAE: Aspartate aminotransferase increased,12 mg (N = 4),0 n (%)
same,Drug-related TEAE: Asthenia,12 mg (N = 4),0 n (%)
same,Drug-related TEAE: Beta globulin decreased,12 mg (N = 4),0 n (%)
same,Drug-related TEAE: Beta globulin increased,12 mg (N = 4),0 n (%)
same,Drug-related TEAE: Blood alkaline phosphatase increased,12 mg (N = 4),2 (50.0) n (%)
same,Drug-related TEAE: Blood bilirubin increased,12 mg (N = 4),0 n (%)
same,Drug-related TEAE: Blood creatine phosphokinase increased,12 mg (N = 4),0 n (%)
same,Drug-related TEAE: Blood fibrinogen increased,12 mg (N = 4),4 (100) n (%)
same,Drug-related TEAE: Blood lactate dehydrogenase increased,12 mg (N = 4),1 (25.0) n (%)
same,Drug-related TEAE: Blood pressure increased,12 mg (N = 4),1 (25.0) n (%)
same,Drug-related TEAE: Blood urea increased,12 mg (N = 4),0 n (%)
same,Drug-related TEAE: Blood uric acid increased,12 mg (N = 4),0 n (%)
same,Drug-related TEAE: Breath odor,12 mg (N = 4),0 n (%)
same,Drug-related TEAE: Capillary disorder,12 mg (N = 4),0 n (%)
same,Drug-related TEAE: Constipation,12 mg (N = 4),2 (50.0) n (%)
same,Drug-related TEAE: Decreased appetite,12 mg (N = 4),0 n (%)
same,Drug-related TEAE: Dermatitis acneiform,12 mg (N = 4),0 n (%)
same,Drug-related TEAE: Diarrhea,12 mg (N = 4),0 n (%)
same,Drug-related TEAE: Drug eruption,12 mg (N = 4),0 n (%)
same,Drug-related TEAE: Dyslipidemia,12 mg (N = 4),0 n (%)
same,Drug-related TEAE: Ejection fraction decreased,12 mg (N = 4),0 n (%)
same,Drug-related TEAE: Electrocardiogram QT prolonged,12 mg (N = 4),0 n (%)
same,Drug-related TEAE: Electrocardiogram abnormal,12 mg (N = 4),2 (50.0) n (%)
same,Drug-related TEAE: Epistaxis,12 mg (N = 4),0 n (%)
same,Drug-related TEAE: Folliculitis,12 mg (N = 4),4 (100) n (%)
same,Drug-related TEAE: Functional gastrointestinal disorder,12 mg (N = 4),0 n (%)
same,Drug-related TEAE: Gamma-glutamyltransferase increased,12 mg (N = 4),0 n (%)
same,Drug-related TEAE: Gingival pain,12 mg (N = 4),0 n (%)
same,Drug-related TEAE: Hyperlipidemia,12 mg (N = 4),1 (25.0) n (%)
same,Drug-related TEAE: Hypertension,12 mg (N = 4),0 n (%)
same,Drug-related TEAE: Hypoalbuminemia,12 mg (N = 4),0 n (%)
same,Drug-related TEAE: Hypocalcemia,12 mg (N = 4),0 n (%)
same,Drug-related TEAE: Hypophosphatemia,12 mg (N = 4),0 n (%)
same,Drug-related TEAE: Hypoproteinemia,12 mg (N = 4),0 n (%)
same,Drug-related TEAE: Immunoglobulins increased,12 mg (N = 4),0 n (%)
same,Drug-related TEAE: Impetigo,12 mg (N = 4),0 n (%)
same,Drug-related TEAE: Left atrial enlargement,12 mg (N = 4),0 n (%)
same,Drug-related TEAE: Lipoprotein abnormal,12 mg (N = 4),0 n (%)
same,Drug-related TEAE: Malaise,12 mg (N = 4),0 n (%)
same,Drug-related TEAE: Menstrual disorder,12 mg (N = 4),2 (50.0) n (%)
same,Drug-related TEAE: Mitral valve incompetence,12 mg (N = 4),1 (25.0) n (%)
same,Drug-related TEAE: Mouth ulceration,12 mg (N = 4),3 (75.0) n (%)
same,Drug-related TEAE: Muscular weakness,12 mg (N = 4),0 n (%)
same,Drug-related TEAE: Oedema peripheral,12 mg (N = 4),0 n (%)
same,Drug-related TEAE: Pain in extremity,12 mg (N = 4),0 n (%)
same,Drug-related TEAE: Paronychia,12 mg (N = 4),0 n (%)
same,Drug-related TEAE: Prealbumin decreased,12 mg (N = 4),0 n (%)
same,Drug-related TEAE: Protein urine present,12 mg (N = 4),0 n (%)
same,Drug-related TEAE: Pruritus,12 mg (N = 4),0 n (%)
same,Drug-related TEAE: QRS axis abnormal,12 mg (N = 4),3 (75.0) n (%)
same,Drug-related TEAE: Rash,12 mg (N = 4),0 n (%)
same,Drug-related TEAE: Sinus arrhythmia,12 mg (N = 4),0 n (%)
same,Drug-related TEAE: Sinus bradycardia,12 mg (N = 4),0 n (%)
same,Drug-related TEAE: Sinusitis,12 mg (N = 4),1 (25.0) n (%)
same,Drug-related TEAE: Skin exfoliation,12 mg (N = 4),0 n (%)
same,Drug-related TEAE: Specific gravity urine increased,12 mg (N = 4),0 n (%)
same,Drug-related TEAE: Stomatitis,12 mg (N = 4),0 n (%)
same,Drug-related TEAE: Supraventricular extrasystoles,12 mg (N = 4),0 n (%)
same,Drug-related TEAE: Total bile acids increased,12 mg (N = 4),0 n (%)
same,Drug-related TEAE: Tricuspid valve incompetence,12 mg (N = 4),0 n (%)
same,Drug-related TEAE: Urinary occult blood positive,12 mg (N = 4),0 n (%)
same,Drug-related TEAE: Urinary sediment present,12 mg (N = 4),0 n (%)
same,Drug-related TEAE: Urinary tract infection,12 mg (N = 4),0 n (%)
same,Drug-related TEAE: Urine ketone body present,12 mg (N = 4),0 n (%)
same,Drug-related TEAE: Urobilinogen urine increased,12 mg (N = 4),0 n (%)
